Measured values from PMC12500448 (Frontiers in Pharmacology, 2025).
Like-named read-outs stand apart in the source and are kept apart here.

How the values were obtained:
[1] = Pharmacokinetics of quetiapine and N-desalkylquetiapine in rats with or without nicardipine; assay type: in vivo, Sprague-Dawley rats; settings: rat; for CL/F: read-out: CLz/F (converted)
Experimental: Due to the similarity between their hepatic enzyme system and humans, Sprague-Dawley male rats are widely used in pharmacokinetics ([Martignoni et al., 2006]; [Riccardi et al., 2018]). This pharmacokinetic study was conducted on eight healthy male Sprague-Dawley rats provided by the Animal Experiment Center of the First Affiliated Hospital of Wenzhou Medical University (Zhejiang, China). Animals were housed in an environment with a temperature of 20 °C–26 °C, relative humidity of 55% ± 15%, and a light-dark cycle of 12 h/day, in strict following the guidelines for the care and use of laboratory animals by the National Research Council. The research protocol was adhered to the ARRIVE guidelines and was approved by the Experimental Animal Ethics Committee of the First Affiliated Hospital of Wenzhou Medical University (WYYY-IACUC-AEC-2023–064). Before the formal experiment, in order to mitigate the influence of food on drug absorption, Sprague-Dawley rats were fasted for 12 h and then randomly divided into two groups. Nicardipine and quetiapine are dissolved using corn oil. […] Following centrifugation at 8,000 rpm for 10 min, 100 μL of plasma supernatant was precisely taken into a new clean and dry 1.5 mL EP tube, where 300 μL acetonitrile and 10 μL IS working solution (200 ng/mL) were added, and after vortexing and centrifugation, the supernatants were taken for injection and analysis.

[2] = set-up: method as in Chen et al., 2024; settings: in vivo; ref Chen et al., 2024; cited from earlier work
[3] = tested on: rat liver microsomes (RLM); experiment: Screening of 10 drugs for inhibition of quetiapine metabolism (formation of N-desalkylquetiapine) in RLM; assay type: in vitro ADME; settings: RLM 0.3 mg/mL, drug 100 μM, quetiapine at Km
Experimental: (§1) 200 μL enzymatic kinetic incubation system was adjusted according to the measurement purpose with the corresponding incubation conditions. […] The mixture without NADPH was pre-incubated at 37 °C in a water bath for 5 min, then 10 μL NADPH (20 mM) was added to initiate the reaction. Following a further 30 min incubation, the reaction was terminated by freezing at −80 °C. Prior to sample thawing, 400 μL acetonitrile was added to precipitate proteins, and 20 μL lurasidone (200 ng/mL) was added as IS. After complete dissolution of the samples, they were vortexed for 2 min and centrifuged for 10 min (13,000 rpm), then the supernatants were taken for UPLC-MS/MS detection and analysis.

[4] = tested on: human liver microsomes (HLM); settings: 1-200 μM quetiapine
Experimental: as §1
(§2) The Michaelis-Menten curves, IC50 curves, Lineweaver–Burk plots, and the mean plasma concentration–time curves were generated using GraphPad Prism software (version 9.5; GraphPad Software Inc., San Diego, CA). The pharmacokinetic parameters were derived using the non-compartmental model analysis with Drug and Statistics software (version 3.0 software, Mathematical Pharmacology Professional Committee of China, Shanghai, China).

[5] = tested on: rat liver microsomes (RLM); settings: 1-200 μM quetiapine
Experimental: as §1, §2

[6] = treatment of refractory depression; ref Reif et al., 2023; cited from earlier work
[7] = metabolite N-desalkylquetiapine in plasma, quetiapine 15 mg/kg + nicardipine 4 mg/kg by gavage
[8] = metabolite N-desalkylquetiapine in plasma, quetiapine 15 mg/kg by gavage alone
[9] = male, Sprague-Dawley, plasma, po, 15 mg/kg, quetiapine in plasma, quetiapine 15 mg/kg + nicardipine 4 mg/kg by gavage 30 min before
[10] = male, Sprague-Dawley, plasma, po, 15 mg/kg, quetiapine in plasma, quetiapine 15 mg/kg by gavage alone

## c1ccc2c(c1)N=C(N1CCNCC1)c1ccccc1S2 [N-desalkylquetiapine]
[1]; [7]
  AUC0−∞: 80.29 ± 27.62 ng·h/mL
  AUC(0-t): 70.19 ± 22.75 ng·h/mL
  CLz/F: 3499.8 ± 1541 mL/min/kg
  Cmax: 14.98 ± 11.59 ng/mL
  Tmax: 0.69 ± 0.55 h
  t1/2: 8.54 ± 5.49 h
[1]; [8]
  AUC0−∞: 161.47 ± 62.64 ng·h/mL
  AUC(0-t): 160.62 ± 63.16 ng·h/mL
  CLz/F: 1692 ± 501.3 mL/min/kg
  Cmax: 50.66 ± 32.77 ng/mL
  Tmax: 0.31 ± 0.13 h
  t1/2: 3.19 ± 1.76 h

## COC(=O)C1=C(C)NC(C)=C(C(=O)OCCN(C)Cc2ccccc2)C1c1cccc([N+](=O)[O-])c1 (stereo not shown) [nicardipine]
[2]
  increase of AUC0−∞ of almonertinib: 0.87 fold
  increase of AUC(0-t) of almonertinib: 0.95 fold

## O=c1c(O)c(-c2ccc(O)c(O)c2)oc2cc(O)cc(O)c12 [quercetin]
[3]
  inhibition rate against quetiapine metabolism: 61.47%

## OCCOCCN1CCN(C2=Nc3ccccc3Sc3ccccc32)CC1 [quetiapine]
[4]
  Km: 50.8 µM
[5]
  Km: 48.8 µM
[1]; [9]
  AUC(0-inf): 108 ± 31.4 ng·h/mL
  half-life: 5.16 ± 2.82 h
  CL/F: 2460 mL/min/kg
[1]; male, Sprague-Dawley, plasma, po, 15 mg/kg, quetiapine in plasma, quetiapine 15 mg/kg + nicardipine 4 mg/kg by gavage 30 min before, read-out: AUC(0-t)
  AUC(0-t): 106 ± 30.3 ng·h/mL
[1]; male, Sprague-Dawley, plasma, po, 15 mg/kg, quetiapine in plasma, quetiapine 15 mg/kg + nicardipine 4 mg/kg by gavage 30 min before, read-out: Cmax
  Cmax: 28.8 ± 10.7 ng/mL
[1]; male, Sprague-Dawley, plasma, po, 15 mg/kg, quetiapine in plasma, quetiapine 15 mg/kg + nicardipine 4 mg/kg by gavage 30 min before, read-out: Tmax
  Tmax: 0.88 ± 0.52 h
[1]; [10]
  AUC(0-inf): 38.1 ± 6.91 ng·h/mL
  half-life: 5.12 ± 3.56 h
  CL/F: 6730 mL/min/kg
[1]; male, Sprague-Dawley, plasma, po, 15 mg/kg, quetiapine in plasma, quetiapine 15 mg/kg by gavage alone, read-out: AUC(0-t)
  AUC(0-t): 36 ± 5.48 ng·h/mL
[1]; male, Sprague-Dawley, plasma, po, 15 mg/kg, quetiapine in plasma, quetiapine 15 mg/kg by gavage alone, read-out: Cmax
  Cmax: 12 ± 2.28 ng/mL
[1]; male, Sprague-Dawley, plasma, po, 15 mg/kg, quetiapine in plasma, quetiapine 15 mg/kg by gavage alone, read-out: Tmax
  Tmax: 0.94 ± 0.52 h
[6]
  incidence of adverse reactions: 78.0%
  incidence of serious adverse reactions: 5.7%
